Source: patent US20170348369A1, “Plant Extract and Its Therapeutic Use” (Viridis Pharmaceutical Limited, priority 2008, published 2017)

Target: T1, purified human DNA topoisomerase IIα (Homo sapiens, UniProt P11388)
T1 construct: purchased TopoGEN
Assay: Inhibition of topoisomerase II activity (TopoGEN Topoisomerase II Drug Screening Kit)
Type: biochemical
Conditions: cell-free; FIG. 13; 0.3, 3, 30 μg/ml
Procedure: With the liquid extract ViP-E_Matr'08_1102, prepared according to example 7, the liquid extract ViP-E_Matr08_1106, prepared according to example 8, or the liquid extract ViP-E_Matr'08_1105, prepared according to example 9, […] As positive control etoposide was carried along.
The inhibition of topoisomerase II was determined using purified human DNA topoisomerase Ilα and the “Topoisomerase II Drug Screening Kit” from TopoGEN. Thereby it was proceeded according to the manufacturer's protocol. The DNA was separated by electrophoresis on an agarose gel and visualized under UV light after staining with ethidium bromide. With this approach the relaxed DNA (topoisomers) generated by topoisomerase II could be detected and clearly separated from the supercoiled DNA substrate.

T1 sequence (P11388 whole entry): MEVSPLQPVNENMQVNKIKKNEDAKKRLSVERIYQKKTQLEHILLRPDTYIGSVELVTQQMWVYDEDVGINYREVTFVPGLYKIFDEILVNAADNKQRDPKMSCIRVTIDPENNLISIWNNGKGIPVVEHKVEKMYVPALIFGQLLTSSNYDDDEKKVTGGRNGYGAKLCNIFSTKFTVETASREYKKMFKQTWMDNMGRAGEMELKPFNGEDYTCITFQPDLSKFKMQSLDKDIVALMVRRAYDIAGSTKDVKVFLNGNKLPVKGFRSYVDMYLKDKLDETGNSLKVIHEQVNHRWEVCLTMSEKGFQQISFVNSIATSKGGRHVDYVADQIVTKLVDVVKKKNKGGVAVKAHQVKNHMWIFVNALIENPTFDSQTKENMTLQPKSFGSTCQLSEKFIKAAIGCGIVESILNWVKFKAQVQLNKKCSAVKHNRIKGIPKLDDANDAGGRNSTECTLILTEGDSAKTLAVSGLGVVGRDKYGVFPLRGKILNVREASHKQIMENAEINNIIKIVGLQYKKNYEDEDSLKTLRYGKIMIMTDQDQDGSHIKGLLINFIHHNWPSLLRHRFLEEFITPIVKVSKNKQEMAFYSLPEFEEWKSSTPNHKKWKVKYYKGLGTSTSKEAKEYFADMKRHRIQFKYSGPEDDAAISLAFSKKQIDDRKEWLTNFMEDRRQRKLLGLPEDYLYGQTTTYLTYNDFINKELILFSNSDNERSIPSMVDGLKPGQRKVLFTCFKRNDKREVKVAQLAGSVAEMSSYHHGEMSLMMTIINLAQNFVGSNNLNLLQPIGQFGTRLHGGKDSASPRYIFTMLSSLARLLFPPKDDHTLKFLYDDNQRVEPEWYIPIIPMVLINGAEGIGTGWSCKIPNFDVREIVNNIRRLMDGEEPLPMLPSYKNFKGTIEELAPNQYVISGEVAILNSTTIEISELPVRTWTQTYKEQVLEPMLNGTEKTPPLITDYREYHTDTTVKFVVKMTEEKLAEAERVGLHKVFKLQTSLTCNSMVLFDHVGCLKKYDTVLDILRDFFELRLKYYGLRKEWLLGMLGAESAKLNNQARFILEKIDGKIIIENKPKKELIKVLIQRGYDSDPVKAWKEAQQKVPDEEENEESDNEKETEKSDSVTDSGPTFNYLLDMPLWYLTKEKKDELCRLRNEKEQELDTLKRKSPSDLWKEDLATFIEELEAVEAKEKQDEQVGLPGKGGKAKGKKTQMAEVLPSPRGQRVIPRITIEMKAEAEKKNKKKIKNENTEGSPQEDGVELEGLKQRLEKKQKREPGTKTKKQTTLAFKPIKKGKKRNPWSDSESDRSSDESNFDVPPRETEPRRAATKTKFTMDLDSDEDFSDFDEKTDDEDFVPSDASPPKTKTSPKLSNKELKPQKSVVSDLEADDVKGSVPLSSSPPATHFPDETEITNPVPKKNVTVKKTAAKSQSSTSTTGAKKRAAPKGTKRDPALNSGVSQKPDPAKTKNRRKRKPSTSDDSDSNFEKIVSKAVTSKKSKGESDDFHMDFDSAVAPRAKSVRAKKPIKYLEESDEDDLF

Substance: α-Bisabolol
- inhibition of topoisomerase II activity: did not influence the topoisomerase II activity in all tested concentrations
